Experimental data published in US11066416B2, “Rapafucin derivative compounds and methods of use thereof” (The Johns Hopkins University, priority 2016, dated 2021).

Experiments:
Format in all cases: cell-based
[1] = system: nucleoside uptake (3H-Thymidine); experiment: Rel.Uptake: nucleoside uptake, single concentration assay, cell line as indicated in each table; details: response relative to DMSO
Procedure: (§1) Nucleoside Uptake Assay (uptake). Nuceloside uptake assays were performed with using 3H-Thymidine as described in Guo et al. (2018) Nat. Chem. 11:254-63. Specific cell lines are indicated in each assay and cultured in complete growth media. Activity is scored according to the IC50 values relative to DMSO control. “Low” indicates an IC50 greater than 600 nM, “Medium” indicates an IC50 between 300 nM and 600 nM “High” indicates an IC50 less than 300 nM. “Rel.Uptake” refers to uptake activity characterization relative to a single concentration assay. “Low” indicates a response greater than 0.6 times the activity relative to DMSO, “Medium” indicates a response between 0.6 and 0.3 times the activity relative to DMSO, “High” indicates a response less than 0.3 times the activity relative to DMSO.

293T = experiment: Nucleoside uptake assay (uptake) using 3H-Thymidine, 293T; details: 293T cells
Procedure: as §1

[2] = system: nucleoside uptake (3H-Thymidine); experiment: Nucleoside uptake assay (uptake) using 3H-Thymidine, IC50, cell line as indicated in each table (none given in Table 8); details: 3H-Thymidine uptake; cell line not given
Procedure: as §1

[3] = IC50 class relative to DMSO control

COc1ccc(CC[C@H]2OC(=O)[C@@H]3CCCCN3C(=O)C(=O)C(C)(C)COC(=O)C=CCCN(C)C(=O)[C@H](CC(C)C)N(C)C(=O)[C@H]3CCCN3C(=O)[C@H](Cc3ccc(CC(=O)NCc4ccccc4)cc3)NC(=O)[C@H](c3ccccc3)NC(=O)CCC(=O)Nc3cccc2c3)cc1OC [Compound 1590]
Rel. Uptake, 293T ([1]; 293T, nucleoside uptake): High (“High” indicates a response less than 0.3 times the activity relative to DMSO) | IC50 (293T; Table 15): > 600 nM

COc1ccc(CC[C@H]2OC(=O)[C@@H]3CCCCN3C(=O)C(=O)C(C)(C)COC(=O)C=CCCN(C)NC(c3ccccc3)C(=O)N(C)[C@@H](Cc3ccccc3)C(=O)N3CCC[C@@H]3C(=O)N(C)[C@@H](CC(C)C)C(=O)C(=O)CCOc3cccc2c3)cc1OC (stereo partly shown) [Compound 1556]
Rel. Uptake, 293T ([1]; 293T, nucleoside uptake): low | Uptake, 293T (293T; [3]): low

COc1ccc(CC[C@H]2OC(=O)[C@@H]3CCCCN3C(=O)C(=O)C(C)(C)COC(=O)C=CCCN(C)C(=O)[C@H](CC(C)C)N(C)C(=O)[C@H]3CCCN3C(=O)[C@H](Cc3ccccc3)N(C)C(=O)[C@H](CC(=O)OC(C)(C)C)NC(=O)CCC(=O)Nc3cccc2c3)cc1OC [Compound 1088]
Rel. Uptake, 293T ([1]; 293T cells): low | Uptake, 293T (293T; [3]): low

COc1ccc(CC[C@H]2OC(=O)[C@@H]3CCCCN3C(=O)C(=O)C(C)(C)COC(=O)C=CCCN(C)C(=O)[C@H](CC(C)C)N(C)C(=O)[C@H]3CCCN3C(=O)[C@H](Cc3ccc(CNC(=O)c4ccccc4)cc3)NC(=O)[C@H](c3ccccc3)NC(=O)CCC(=O)Nc3cccc2c3)cc1OC [Compound 1585]
Rel. Uptake, 293T ([1]; 293T, nucleoside uptake): High (“High” indicates a response less than 0.3 times the activity relative to DMSO) | IC50 (293T; Table 14): < 300 nM

COc1ccc(CC[C@H]2NC(=O)[C@@H]3CCCCN3C(=O)C(=O)C(C)(C)COC(=O)C=CCCN(C)C(=O)[C@H](CC(C)C)N(C)C(=O)[C@H]3CCCN3C(=O)[C@H](Cc3ccccc3)N(C)C(=O)C(c3ccccc3)NC(=O)CCC(=O)Nc3cccc2c3)cc1OC (stereo partly shown) [Compound 1557]
Rel. Uptake, 293T ([1]; 293T, nucleoside uptake): high | Uptake, 293T (293T; [3]): high

CCCCCCNC(=O)Cc1ccc(C[C@@H]2NC(=O)[C@H](c3ccccc3)NC(=O)CCC(=O)Nc3cccc(c3)[C@@H](CCc3ccc(OC)c(OC)c3)OC(=O)[C@@H]3CCCCN3C(=O)C(=O)C(C)(C)COC(=O)C=CCCN(C)C(=O)[C@H](CC(C)C)N(C)C(=O)[C@H]3CCCN3C2=O)cc1 [Compound 1591]
Rel. Uptake, 293T ([1]; 293T, nucleoside uptake): Med | IC50 (293T; Table 15): > 600 nM

COc1ccc(CC[C@H]2OC(=O)[C@@H]3CCCCN3C(=O)C(=O)C(C)(C)COC(=O)C=CCCN(C)C(=O)[C@@H](c3ccccc3)NC(=O)[C@H](Cc3ccc(OP(C)(C)=O)cc3)NC(=O)[C@H]3CCCN3C(=O)[C@H](CC(C)C)N(C)C(=O)COc3cccc2c3)cc1OC [Compound 1520]
Rel. Uptake, 293T ([1]; 293T, nucleoside uptake): low | Uptake, 293T (293T; Table 16): low

COc1ccc(CC[C@H]2OC(=O)[C@@H]3CCCCN3C(=O)C(=O)C(C)(C)COC(=O)C=CCCN(C)C(=O)[C@H](CC(C)C)N(C)C(=O)[C@H]3CCCN3C(=O)[C@H](Cc3ccc(CC(=O)OC(C)(C)C)cc3)NC(=O)C(c3ccccc3)NC(=O)CCC(=O)Nc3cccc2c3)cc1OC (stereo partly shown) [Compound 1081]
Rel. Uptake, 293T ([1]; 293T): medium | Uptake, 293T (293T; [3]): medium

COc1ccc(CC[C@H]2OC(=O)[C@@H]3CCCCN3C(=O)C(=O)C(C)(C)COC(=O)C=CCCN(C)C(=O)[C@H](CC(C)C)N(C)C(=O)[C@@H]3CCCN3C(=O)[C@@H](Cc3ccccc3)N(C)C(=O)CNC(=O)COc3cccc2c3)cc1OC [Compound 1622]
IC50 [2]: 28.5 nM

COCC[C@@H]1NC(=O)COc2cccc(c2)[C@@H](CCc2ccc(OC)c(OC)c2)OC(=O)[C@@H]2CCCCN2C(=O)C(=O)C(C)(C)COC(=O)/C=C/CCN(C)C(=O)[C@H](C(C)C)N(C)C(=O)[C@@H]2CCCN2C(=O)[C@@H](Cc2ccccc2)N(C)C1=O [Compound 1613]
IC50 [2]: 59.5 nM

CCC[C@@H]1NC(=O)CCC(=O)Nc2cccc(c2)[C@@H](CCc2ccc(OC)c(OC)c2)OC(=O)[C@@H]2CCCCN2C(=O)C(=O)C(C)(C)COC(=O)/C=C/CCN(C)C(=O)[C@H](C(C)C)N(C)C(=O)[C@@H]2CCCN2C(=O)[C@@H](Cc2ccccc2)N(C)C1=O [Compound 1607]
IC50 [2]: 18 nM
